Columns and labels:
4T1 cells [1] = test: Confocal microscopy of fluorescence emission in control and Palbociclib-induced senescent cells; type: cell-based, mouse
Protocol: Mouse mammary carcinoma 4T1 cells were cultured in DMEM supplemented with 10 % FBS and incubated in 20 % O2 and 5 % CO2 at 37 °C. The cells were incubated with 5 µM of Palbociclib in DMEM for one week to induce the senescence process. Subsequently, the cells were seeded in a flat clear-bottom 96-well plate with a density of 6000 cells for senescent cells and 4000 in the control cells (without prior treatment with Palbociclib). After 24 hours, the cells were incubated with different concentrations of probe Cy7-Gal and its fluorophore (Cy7), with confocal microscopy images being acquired after 30 min of incubation. A more than 10-fold increase in fluorescence emission is observed between senescent cells treated with probe Cy7-Gal and untreated senescent cells (self-fluorescence signal).

4T1 cells [2] = test: Viability assay (CellTiter-GLO Luminescent Cell Viability Assay) in control and senescent cells; type: cell-based, mouse; settings: 4T1 control and senescent cells, different concentrations, 24 h of incubation
Protocol: Mouse mammary carcinoma 4T1 cells were cultured in DMEM supplemented with 10 % FBS and incubated in 20 % O2 and 5 % CO2 at 37 °C. To obtain cellular senescence, the cells were incubated with 5 µM of Palbociclib in DMEM for one week. Subsequently, the cells were seeded in a flat clear-bottom 96-well plate with a density of 6000 cells for senescent cells and 4000 in the control cells. After 24 h, the cells were treated with different concentrations of probe Cy7-Gal and its fluorophore (Cy7). Viability measurements were obtained after 24 h of incubation using CellTiter-GLO Luminescent Cell Viability Assay as a developer.

4T1 mammary tumours = test: In vivo detection of senescence through urine and bladder fluorescence (IVIS and fluorescence spectroscopy) in mice bearing mammary tumours; parameters: species or system female BALB/cByJ mice
Protocol: Urine fluorescence measurements were carried out by taking 5 µl of urine and diluting it in distilled water to 100 µl. The samples were obtained by exciting at 535 nm and collecting the absorption maximum at 566 nm.
The Palbociclib was administered through an oral probe daily for 7 days at different concentrations of 10 mg / kg, 50 mg / kg and 100 mg / kg dissolved in 50 mM sodium lactate at pH 5 in order to induce senescence. […] The mice were monitored for 15 minutes post-injection of the probe in the IVIS® equipment following the accumulation of fluorophore Cy7 in the bladder after the hydrolysis of probe Cy7-Gal in the presence of senescent cells.

4T1 cell tumours = test: Ex vivo IVIS fluorescence of extracted tumours and organs; type: in vivo, female BALB/cByJ mice; settings: after sacrifice, different Palbociclib groups (FIG. 8d)
Protocol: The mice were kept in the Prince Phillip Research Centre (Centro de Investigación Príncipe Felipe (CIPF)) following the recommendations of the Federation of European Laboratory Animal Science Associations (FELASA). All the processes applied on the animals were approved by the Technical Research Committee for Animal Welfare (Comité Técnico de Investigación para el bienestar de los animals, CElyBA). 4T1 mammary tumours were generated using 4T1 cells: The cells were cultured in DMEM supplemented with 10 % FBS and penicillin-streptomycin. To generate the formation of mammary tumours, the cells were trypsinised and counted with a LUNA ™ automated cell counter and injected by subcutaneous route into the left mammary of 28- to 34-week-old female BALB/CBY mice at a concentration of […] in a volume of 100 µl. The volume of the tumour was measured every two days with a gauge and calculated as V = (a x b2) / 2, wherein a is the longest and b is the shortest of two perpendicular diameters. […] The mice were monitored for 15 minutes post-injection of the probe in the IVIS® equipment following the accumulation of fluorophore Cy7 in the bladder after the hydrolysis of probe Cy7-Gal in the presence of senescent cells. […] The measurement of fluorescence in organs and tumours for the different groups of mice was performed with the IVIS technique.

expulsion from the organism through urine (4T1 mammary tumours; female mice urinated after coming out from under anaesthesia, monitored 15 minutes post-injection): expelled from the organism
SMILES: CC(=O)OC[C@H]1O[C@@H](Oc2ccc(/C=C/C3=[N+](CCCCS(=O)(=O)[O-])c4ccccc4C3(C)C)cc2/C=C/C2=[N+](CCCCS(=O)(=O)[O-])c3ccccc3C2(C)C)[C@H](OC(C)=O)[C@@H](OC(C)=O)[C@H]1OC(C)=O [Cy7-Gal]
increase in fluorescence emission between senescent cells and control cells (4T1 cells [1]; both incubated in the presence of probe, compared with the more than 10-fold increase over untreated senescent cells, 30 min of incubation): slightly higher
increase in fluorescence emission (4T1 cells [1]; senescent 4T1 cells (5 µM Palbociclib, one week) treated with probe vs untreated senescent cells (self-fluorescence signal), 30 min of incubation): more than 10 fold
selectivity of the probe for detecting senescent cells (4T1 cells [1]; senescent vs control 4T1 cells): high selectivity
toxicity (viability) (4T1 cells [2]): minimum toxicity
fluorescence emission of the urine samples vs degree of cellular senescence (4T1 mammary tumours; mice with 4T1 tumours given Palbociclib 10, 50 or 100 mg/kg orally for 7 days, then probe 23.3 mg/ml in 100 µl, IVIS and fluorescence spectroscopy): correspondence between the fluorescence emission of the urine samples and the degree of cellular senescence
fluorescence signal in tumours and most representative organs (IVIS) (4T1 cell tumours): a signal is only observed in senescent tumours, and no signal is observed in the different organs

From EP4043435A1, “COMPOUND FOR DETECTING SENESCENT CELLS AND USE THEREOF” (Universitat Politècnica de València, priority 2019, dated 2021)
